Assay results reported in patent publication US20140348819A1, “Methods of Treating Cancer” (Dana-Farber Cancer Institute, Inc., priority 2011, published 2014).

Experiments:
[1] = test system: V600E B-RAF melanoma cell lines; conditions: pre-clinical trials; cited from earlier work
[2] = test system: SK-MEL-5; test: Proliferation of SK-MEL-5 melanoma cells alone or co-cultured with stromal cell lines, PLX4720 with or without Crizotinib (Table 5); assay type: cell-based, human; conditions: DMSO (no Crizotinib)
Text: (§1) The DLD-1 cells do harbor the BRAF activating mutation V600E but are not sensitive at all to BRAF inhibition. They actually grow faster under BRAFi.
(§2) Proliferation was quantified after 7 days and normalized to non-treated cells. Bars represent standard error between replicates (n=3).
(§3) The propensity of tumors to develop resistance to a wide range of chemotherapy drugs imposes a critical hurdle to the treatment of most types of cancers. […] An optimized high-throughput screening system was used to explore the prevalence and significance of stromal cell-mediated chemoresistance in solid tumors. Forty-six GFP-labeled human cancer cell lines (Table 1) were cultured on 384-well plates either alone or co-cultured with each one of 23 human stromal cell lines (Table 3). The effects of a diverse range of widely used chemotherapy drugs (Table 2) on the proliferation of the single- or co-cultured cancer cell lines were assessed through GFP readings and through fluorescence microscopy.

[3] = test system: WiDr; test: Sensitivity of colorectal cancer cell line to PLX4720 with or without stromal cells (FIG. 2B); assay type: cell-based, human; conditions: colorectal cancer cell lines represented by WiDr
Text: The propensity of tumors to develop resistance to a wide range of chemotherapy drugs imposes a critical hurdle to the treatment of most types of cancers. While the role of the cellular microenvironment in tumor progression and metastasis has been increasingly studied in recent years, its effects on drug resistance are still underappreciated and poorly understood. An optimized high-throughput screening system was used to explore the prevalence and significance of stromal cell-mediated chemoresistance in solid tumors. Forty-six GFP-labeled human cancer cell lines (Table 1) were cultured on 384-well plates either alone or co-cultured with each one of 23 human stromal cell lines (Table 3). The effects of a diverse range of widely used chemotherapy drugs (Table 2) on the proliferation of the single- or co-cultured cancer cell lines were assessed through GFP readings and through fluorescence microscopy. Stroma-mediated primary chemoresistance was clearly detected across most cancer cell lines and chemotherapy drugs (FIGS. 1A and 1B, Tables 3 and 4). In most cases, only a small subset of the stromal cells could render a specific cancer-cell line more resistant to a specific drug, and this subset was usually the same across cancer cell lines from the same origin (FIGS. 1-4). […]

[4] = test system: G361; test: Proliferation of G361 melanoma cells alone or co-cultured with stromal cell lines, PLX4720 with or without Crizotinib (Table 5); assay type: cell-based, human; conditions: for normalized proliferation: G361, PLX4720 - 2 uM, DMSO (no Crizotinib)
Text: as §1, §2, §3

[5] = test system: SK-MEL-28; test: Proliferation of SK-MEL-28 melanoma cells alone or co-cultured with stromal cell lines, PLX4720 with or without Crizotinib (Table 5); assay type: cell-based, human; conditions: DMSO (no Crizotinib)
Text: as §1, §2, §3

Structure (SMILES): CCCS(=O)(=O)Nc1ccc(F)c(C(=O)c2c[nH]c3ncc(Cl)cc23)c1F [PLX4720]
- sensitivity of V600E B-RAF melanoma cell lines [1]: extremely sensitive
- normalized proliferation ([2]; 1069sk, PLX4720 - 2 uM): 0.4
- normalized proliferation ([2]; HS-5, PLX4720 - 2 uM): 0.5
- normalized proliferation ([2]; LL86, PLX4720 - 2 uM): 0.8
- normalized proliferation ([2]; No Fibro, PLX4720 - 2 uM): 0.3
- normalized proliferation ([2]; Wi-38, PLX4720 - 2 uM): 0.6
- sensitivity to BRAFi [3]: largely not sensitive
- normalized proliferation ([4]; 1069sk): 0.1
- normalized proliferation ([4]; HS-5): 0.2
- normalized proliferation ([4]; LL86): 0.5
- normalized proliferation ([4]; No Fibro): 0.1
- normalized proliferation ([4]; Wi-38): 0.4
- sensitivity to the BRAF inhibitor PLX4720 ([4]; melanoma cell lines represented by G-361, FIG. 2B): sensitive
- normalized proliferation ([5]; 1069sk, PLX4720 - 2 uM): 0.1
- normalized proliferation ([5]; HS-5, PLX4720 - 2 uM): 0.1
- normalized proliferation ([5]; LL86, PLX4720 - 2 uM): 0.3
- normalized proliferation ([5]; No Fibro, PLX4720 - 2 uM): 0.1
- normalized proliferation ([5]; Wi-38, PLX4720 - 2 uM): 0.4
